# Experimental data published in patent US20140171357A1, “VANCOMYCIN DERIVATIVES” (Seachald Pharmaceuticals, Inc., priority 2011, published 2014).
# Tests used:
# [1] = tested on: VanB vancomycin-resistant E. faecalis (12); test: MIC broth microdilution, VanB E. faecalis; details: E. faecalis, VanB (12)
# [2] = tested on: vancomycin-susceptible E. faecium (21); test: MIC broth microdilution, vancomycin-susceptible E. faecium; details: E. faecium, vancomycin-susceptible (21)
# [3] = tested on: vancomycin-intermediate S. aureus (VISA, 5); test: MIC broth microdilution, VISA
# [4] = tested on: Staphylococcus epidermidis (43 strains); test: MIC broth microdilution, S. epidermidis; details: S. epidermidis (43)
# VanC enterococci (22) = test: MIC broth microdilution, vanC-carrying enterococci; details: VanC enterococci (22)
# S. pneumoniae (22) = test: MIC broth microdilution, S. pneumoniae; details: for MIC 50% / MIC 90%: S. pneumoniae (22), MHB + lysed horse blood
# [5] = tested on: Staphylococcus aureus (65 strains); test: MIC broth microdilution, S. aureus all isolates; details: S. aureus (65), all resistance subsets
# S. aureus ATCC 25923 = test: Neutropenic murine thigh infection model; details: for AUCc-t (AUC difference between control and treated animals): 24 h time kill
# [6] = tested on: β-hemolytic streptococci (23); test: MIC broth microdilution, β-hemolytic streptococci; details: for MIC 50% / MIC 90%: β-hemolytic streptococci (23), MHB + lysed horse blood; for fold more potent than teicoplanin and daptomycin / fold more potent than vancomycin: β-hemolytic streptococci
# [7] = tested on: vancomycin-resistant S. aureus (VRSA, 6); test: MIC broth microdilution, VRSA
# [8] = tested on: methicillin-susceptible S. aureus (MSSA, 22); test: MIC broth microdilution, MSSA; details: MSSA (22)
# [9] = tested on: VanA vancomycin-resistant E. faecium (10); test: MIC broth microdilution, VanA E. faecium; details: E. faecium, VanA (10)
# [10] = tested on: methicillin-resistant S. aureus (MRSA, 22); test: MIC broth microdilution, MRSA; details: MRSA (22)
# [11] = tested on: VanA vancomycin-resistant E. faecalis (11); test: MIC broth microdilution, VanA E. faecalis; details: E. faecalis, VanA (11)
# [12] = tested on: vancomycin-susceptible E. faecalis (23); test: MIC broth microdilution, vancomycin-susceptible E. faecalis; details: E. faecalis, vancomycin-susceptible (23)
# [13] = tested on: VanB vancomycin-resistant E. faecium (10); test: MIC broth microdilution, VanB E. faecium; details: E. faecium, VanB (10)
# [14] = tested on: heterogeneous VISA (hVISA, 10); test: MIC broth microdilution, hVISA
# [15] = 1 mg/kg single intraperitoneal dose
# [16] = 4 mg/kg single intraperitoneal dose
# [17] = 16 mg/kg single intraperitoneal dose
smiles,measurement,setting,value
CNC(CC(C)C)C(=O)NC1C(=O)NC(CC(N)=O)C(=O)NC2C(=O)NC3C(=O)NC(C(=O)NC(C(=O)O)c4cc(O)c(CNCCOCCOCCOCCN(C)C)c(O)c4-c4cc3ccc4O)C(O)c3ccc(c(Cl)c3)Oc3cc2cc(c3OC2OC(CO)C(O)C(O)C2OC2CC(C)(NCc3ccc(-c4ccc(Cl)cc4)cc3)C(O)C(C)O2)Oc2ccc(cc2Cl)C1O (stereo not shown) [Compound 14],MIC 50%,[1],0.25 µg/mL
same,MIC 90%,[1],0.25 µg/mL
same,MIC 50%,[2],0.12 µg/mL
same,MIC 90%,[2],0.12 µg/mL
same,MIC 50%,[3],0.5 µg/mL
same,MIC 50%,[4],0.12 µg/mL
same,MIC 90%,[4],0.12 µg/mL
same,MIC 50%,VanC enterococci (22),0.25 µg/mL
same,MIC 90%,VanC enterococci (22),0.5 µg/mL
same,MIC 50%,S. pneumoniae (22),0.06 µg/mL
same,MIC 90%,S. pneumoniae (22),0.12 µg/mL
same,MIC 50%,[5],0.12 µg/mL
same,MIC 90%,[5],0.5 µg/mL
same,Max Kill (maximum decrease from initial infection level),S. aureus ATCC 25923; [15],0.83 Log10 CFU/thigh
same,AUCc-t (AUC difference between control and treated animals),S. aureus ATCC 25923; [15],11.4 (Log10 CFU/thigh)/hr
same,Max Kill (maximum decrease from initial infection level),S. aureus ATCC 25923; [16],0.19 Log10 CFU/thigh
same,AUCc-t (AUC difference between control and treated animals),S. aureus ATCC 25923; [16],19.4 (Log10 CFU/thigh)/hr
same,Max Kill (maximum decrease from initial infection level),S. aureus ATCC 25923; [17],0.03 Log10 CFU/thigh
same,AUCc-t (AUC difference between control and treated animals),S. aureus ATCC 25923; [17],36.1 (Log10 CFU/thigh)/hr
same,MIC 50%,[6],0.06 µg/mL
same,MIC 90%,[6],0.06 µg/mL
same,MIC 50%,[7],8 µg/mL
same,MIC 50%,[8],0.12 µg/mL
same,MIC 90%,[8],0.25 µg/mL
same,MIC 50%,[9],2 µg/mL
same,MIC 90%,[9],4 µg/mL
same,MIC 50%,[10],0.12 µg/mL
same,MIC 90%,[10],0.12 µg/mL
same,MIC 50%,[11],8 µg/mL
same,MIC 90%,[11],16 µg/mL
same,MIC 50%,[12],0.25 µg/mL
same,MIC 90%,[12],0.25 µg/mL
same,MIC 50%,[13],0.12 µg/mL
same,MIC 90%,[13],0.12 µg/mL
same,MIC 50%,[14],0.12 µg/mL
same,MIC 90%,[14],0.12 µg/mL
CCCCCCCCCCNCCNC1(C)CC(OC2C(Oc3c4cc5cc3Oc3ccc(cc3Cl)C(O)C3NC(=O)C(NC(=O)C5NC(=O)C(CC(N)=O)NC(=O)C(NC(=O)C(CC(C)C)NC)C(O)c5ccc(c(Cl)c5)O4)c4ccc(O)c(c4)-c4c(cc(O)c(CNCCOCCOCCN)c4O)C(C(=O)O)NC3=O)OC(CO)C(O)C2O)OC(C)C1O (stereo not shown) [Compound 3],MIC 50%,[1],0.06 µg/mL
same,MIC 90%,[1],0.12 µg/mL
same,MIC 50%,[2],0.015 µg/mL
same,MIC 90%,[2],0.03 µg/mL
same,MIC 50%,[3],0.12 µg/mL
same,MIC 50%,[4],0.03 µg/mL
same,MIC 90%,[4],0.03 µg/mL
same,MIC 50%,VanC enterococci (22),0.06 µg/mL
same,MIC 90%,VanC enterococci (22),0.12 µg/mL
same,fold more potent than linezolid,S. pneumoniae (22); S. pneumoniae,32 fold
same,MIC 50%,S. pneumoniae (22),0.015 µg/mL
same,MIC 90%,S. pneumoniae (22),0.03 µg/mL
same,MIC 50%,[5],0.03 µg/mL
same,MIC 90%,[5],0.12 µg/mL
same,Max Kill (maximum decrease from initial infection level),S. aureus ATCC 25923; [15],−0.2 Log10 CFU/thigh
same,AUCc-t (AUC difference between control and treated animals),S. aureus ATCC 25923; [15],28.4 (Log10 CFU/thigh)/hr
same,Max Kill (maximum decrease from initial infection level),S. aureus ATCC 25923; [16],−0.41 Log10 CFU/thigh
same,AUCc-t (AUC difference between control and treated animals),S. aureus ATCC 25923; [16],32.3 (Log10 CFU/thigh)/hr
same,Max Kill (maximum decrease from initial infection level),S. aureus ATCC 25923; [17],−1.08 Log10 CFU/thigh
same,AUCc-t (AUC difference between control and treated animals),S. aureus ATCC 25923; [17],52.9 (Log10 CFU/thigh)/hr
same,organism reduction across doses,"S. aureus ATCC 25923; 1, 4 and 16 mg/kg intraperitoneal",organism reduction over the entire dose range
same,in vivo efficacy against S. aureus (in words),S. aureus ATCC 25923; neutropenic soft tissue infection model,bactericidal characteristics and prolonged in vivo activity
same,fold more potent than teicoplanin and daptomycin,[6],two- to four
same,fold more potent than vancomycin,[6],four- to eight
same,MIC 50%,[6],0.03 µg/mL
same,MIC 90%,[6],0.12 µg/mL
same,MIC 50%,[7],1 µg/mL
same,MIC 50%,[8],0.03 µg/mL
same,MIC 90%,[8],0.06 µg/mL
same,MIC 50%,[9],2 µg/mL
same,MIC 90%,[9],4 µg/mL
same,MIC 50%,[10],0.03 µg/mL
same,MIC 90%,[10],0.06 µg/mL
same,MIC 50%,[11],4 µg/mL
same,MIC 90%,[11],8 µg/mL
same,MIC 50%,[12],0.06 µg/mL
same,MIC 90%,[12],0.06 µg/mL
same,MIC 50%,[13],0.015 µg/mL
same,MIC 90%,[13],0.015 µg/mL
same,MIC 50%,[14],0.06 µg/mL
same,MIC 90%,[14],0.06 µg/mL
CNC(CC(C)C)C(=O)NC1C(=O)NC(CC(N)=O)C(=O)NC2C(=O)NC3C(=O)NC(C(=O)NC(C(=O)O)c4cc(O)c(CNCCOCCOCCN)c(O)c4-c4cc3ccc4O)C(O)c3ccc(c(Cl)c3)Oc3cc2cc(c3OC2OC(CO)C(O)C(O)C2OC2CC(C)(NCc3ccc(OCc4ccc(Cl)c(Cl)c4)cc3)C(O)C(C)O2)Oc2ccc(cc2Cl)C1O (stereo not shown) [Compound 28],MIC 50%,[1],0.12 µg/mL
same,MIC 90%,[1],0.12 µg/mL
same,MIC 50%,[2],0.03 µg/mL
same,MIC 90%,[2],0.06 µg/mL
same,MIC 50%,[3],0.12 µg/mL
same,MIC 50%,[4],0.03 µg/mL
same,MIC 90%,[4],0.03 µg/mL
same,MIC 50%,VanC enterococci (22),0.06 µg/mL
same,MIC 90%,VanC enterococci (22),0.25 µg/mL
same,MIC 50%,S. pneumoniae (22),0.03 µg/mL
same,MIC 90%,S. pneumoniae (22),0.06 µg/mL
same,MIC 50%,[5],0.06 µg/mL
same,MIC 90%,[5],0.12 µg/mL
same,Max Kill (maximum decrease from initial infection level),S. aureus ATCC 25923; [15],0.61 Log10 CFU/thigh
same,AUCc-t (AUC difference between control and treated animals),S. aureus ATCC 25923; [15],19.1 (Log10 CFU/thigh)/hr
same,Max Kill (maximum decrease from initial infection level),S. aureus ATCC 25923; [16],0.75 Log10 CFU/thigh
same,AUCc-t (AUC difference between control and treated animals),S. aureus ATCC 25923; [16],17.3 (Log10 CFU/thigh)/hr
same,Max Kill (maximum decrease from initial infection level),S. aureus ATCC 25923; [17],−0.02 Log10 CFU/thigh
same,AUCc-t (AUC difference between control and treated animals),S. aureus ATCC 25923; [17],38.2 (Log10 CFU/thigh)/hr
same,fold more potent than teicoplanin and daptomycin,[6],two- to four
same,fold more potent than vancomycin,[6],four- to eight
same,MIC 50%,[6],0.03 µg/mL
same,MIC 90%,[6],0.06 µg/mL
same,MIC 50%,[7],2 µg/mL
same,MIC 50%,[8],0.06 µg/mL
same,MIC 90%,[8],0.06 µg/mL
same,MIC 50%,[9],0.5 µg/mL
same,MIC 90%,[9],1 µg/mL
same,MIC 50%,[10],0.06 µg/mL
same,MIC 90%,[10],0.06 µg/mL
same,MIC 50%,[11],2 µg/mL
same,MIC 90%,[11],4 µg/mL
same,MIC 50%,[12],0.06 µg/mL
same,MIC 90%,[12],0.12 µg/mL
same,MIC 50%,[13],0.03 µg/mL
same,MIC 90%,[13],0.06 µg/mL
same,MIC 50%,[14],0.06 µg/mL
same,MIC 90%,[14],0.06 µg/mL
